Reference: patent publication US20030068615A1, “Polypeptides that bind HIV gp120 and related nucleic acids, antibodies, compositions, and methods of use” (priority 1999, published 2003)
“And” between values parts separate entries of the source, which are not always exact repeats. Identical values can stand only once. Like-named read-outs stand apart in the source and are kept apart here.

Target: HIV-1LAI envelope gp120 (Human immunodeficiency virus type 1 group M subtype B, UniProt P03377)
Type: binding
Conditions: for Binding Results For Window Length (counts bound-background), 9 / Binding Results For Window Length (counts bound-background), 12 / Binding Results For Window Length (counts bound-background), 15 / Binding Results For Window Length (counts bound-background), 18: STRL33 amino terminus; for Binding Results For Window Length (counts bound-background), 9: 9-mer starting at the first residue of the printed sequence; for Binding Results For Window Length (counts bound-background), 12: 12-mer starting at the first residue of the printed sequence; for Binding Results For Window Length (counts bound-background), 15: 15-mer starting at the first residue of the printed sequence; for Binding Results For Window Length (counts bound-background), 18: 18-mer starting at the first residue of the printed sequence; for Relative % of Control: mean of two syntheses and binding experiments ± average deviation, wild-type = 100%; for Counts per 20′ Average-background: CCR5 18-mer scan; for number of radioactive decays (counts) counted: human CD4 21-mer scan, empty control 2075
[1] = Panel E, 9-mers and 12-mers of CD4, empty control 571
[2] = Panel C, 15-mers and 18-mers of CD4, empty control 556
[3] = Panel F, sequential alanine replacements of CD4 polypeptides, duplicate series, empty control 569
[4] = Panel D, 9-mers and 12-mers of CD4, empty control […]
[5] = STRL33 18-mer scan, background subtracted, first of two count columns
[6] = STRL33 18-mer scan, background subtracted, second of two count columns
[7] = radiolabeled HIV-1LAI gp120, background subtracted
[8] = Panel G, alanine replacements and serial truncations (Z) of CD4 polypeptides, empty control 580
[9] = CXCR4 18-mer scan, background subtracted, empty control 0
[10] = CXCR4 18-mer scan, empty control 412
[11] = Panel B, 15-mers and 18-mers of CD4, empty control 575
[12] = Panel A, 21-mers of CD4, empty control 515 and 617

HDYHEDYGFSSFNDSSQE
Binding Results For Window Length (counts bound-background), 9 (background subtracted): 708 counts
Binding Results For Window Length (counts bound-background), 12 (background subtracted): 1427 counts
Binding Results For Window Length (counts bound-background), 15 (background subtracted): 1772 counts
Binding Results For Window Length (counts bound-background), 18 (background subtracted): 1500 counts

LQNQKKVEFKID
COUNTS of radiolabeled gp120 retained [1]: 508 counts

MEAISIYTSDNYTEEMGS
Relative % of Control (CXCR4 (1-18) alanine variants): 101 ± 3%

TCTVLQNQKKVEFKIDIV
COUNTS of radiolabeled gp120 retained [2]: 571 counts

EEVQALVFGLTANSD
COUNTS of radiolabeled gp120 retained [3]: 11258 counts and 12603 counts

QGQSLTLTL
COUNTS of radiolabeled gp120 retained [4]: 594 counts

KVTSLLIWVISLLVSLPQ
radioactive counts recorded in twenty minutes [5]: −39.5 counts
radioactive counts recorded in twenty minutes [6]: −118.5 counts

IFTIMIVYFLFWAPYNIV [CCR5 segment 237-]
Counts per 20′ Average-background [7]: 121 counts per 20′

KASSIVYKK
COUNTS of radiolabeled gp120 retained [1]: 498 counts

GEQVEFSFPLTFTVE
COUNTS of radiolabeled gp120 retained [8]: 17397 counts and 18318 counts

GQSLTLTLE
COUNTS of radiolabeled gp120 retained [4]: 777 counts

MEGISAYTSDNYTEEMGS
Relative % of Control (CXCR4 (1-18) alanine variants): 2 ± 1%

SSFNDSSQEEHQAFLQFS [STRL33 segment 13-30]
radioactive counts recorded in twenty minutes [5]: 2689.5 counts
radioactive counts recorded in twenty minutes [6]: 2757.5 counts
Binding Results For Window Length (counts bound-background), 9 (background subtracted): 243 counts
Binding Results For Window Length (counts bound-background), 12 (background subtracted): 277 counts
Binding Results For Window Length (counts bound-background), 15 (background subtracted): 902 counts
Binding Results For Window Length (counts bound-background), 18 (background subtracted): 6038 counts

NQKKVEFKI
COUNTS of radiolabeled gp120 retained [1]: 597 counts

GLVILVMGYQKKLRSMTD [CXCR4 segment 57-74]
radioactive counts recorded in twenty minutes [9]: 157 counts
radioactive counts recorded in twenty minutes [10]: 569 counts

STPVQPMALIVLGGVAGLLLF [human CD4 391-411]
number of radioactive decays (counts) counted: 2527 counts

YAGSGNLTLALEAKTGKLHQE [human CD4 291-311]
number of radioactive decays (counts) counted: 1830 counts

AVVHAVFALKARTVTFGV
Counts per 20′ Average-background [7]: 34 counts per 20′

SLKLENKEAKVSKREKAVWVL [human CD4 341-361]
number of radioactive decays (counts) counted: 1663 counts

YSSVLILAFISLDRYLAI
radioactive counts recorded in twenty minutes [9]: 157 counts
radioactive counts recorded in twenty minutes [10]: 569 counts

LYAFLGAKFKTSAQHALT [CXCR4 segment 301-318]
radioactive counts recorded in twenty minutes [9]: 156 counts
radioactive counts recorded in twenty minutes [10]: 568 counts

LQNQKKVEF
COUNTS of radiolabeled gp120 retained [1]: 565 counts

NLKIEDSDTYICEVE
COUNTS of radiolabeled gp120 retained [11]: 1160 counts

FNLDKLICGYHDEAISTV
radioactive counts recorded in twenty minutes [5]: 1072.5 counts
radioactive counts recorded in twenty minutes [6]: 1078.5 counts

TELLQGASLTLTLES
COUNTS of radiolabeled gp120 retained [3]: 4238 counts

SSIVYKKEGEQV
COUNTS of radiolabeled gp120 retained [1]: 615 counts

TYICEVEDQ
COUNTS of radiolabeled gp120 retained [4]: 805 counts

IGISIDSFILLEIIKQGC [CXCR4 segment 257-274]
radioactive counts recorded in twenty minutes [9]: 734 counts
radioactive counts recorded in twenty minutes [10]: 1146 counts

CEVEDQKEE
COUNTS of radiolabeled gp120 retained [4]: 555 counts

ICEVEDQKEEVQLLV
COUNTS of radiolabeled gp120 retained [11]: 1084 counts

VSSPIYDINYYTSEPCQK [CCR5 segment 5-22]
Counts per 20′ Average-background [7]: 383 counts per 20′

AFVSLKFRKNFWKLVKDI [STRL33 segment 289-306]
radioactive counts recorded in twenty minutes [5]: 808.5 counts
radioactive counts recorded in twenty minutes [6]: 1040.5 counts

PLAFTVEKLTGSGEL
COUNTS of radiolabeled gp120 retained [2]: 612 counts

LEAKTGKLHQEVNLVVMRATQ [human CD4 301-321]
number of radioactive decays (counts) counted: 1729 counts

EAISTVVLATQMTLGFFL [STRL33 segment 185-202]
radioactive counts recorded in twenty minutes [5]: 3973.5 counts
radioactive counts recorded in twenty minutes [6]: 3745.5 counts

EDQKEEVQLLVFGLT
COUNTS of radiolabeled gp120 retained [11]: 3633 counts

QKEEVQLLV
COUNTS of radiolabeled gp120 retained [4]: 636 counts

DSSQEEHQAFLQFSK
Binding Results For Window Length (counts bound-background), 9 (background subtracted): 147 counts
Binding Results For Window Length (counts bound-background), 12 (background subtracted): 882 counts
Binding Results For Window Length (counts bound-background), 15 (background subtracted): 4588 counts

LTVPFWAHYAAAQWDFGN [CCR5 segment 81-98]
Counts per 20′ Average-background [7]: 306 counts per 20′

LKIEDSDTYICEVEDQKE
COUNTS of radiolabeled gp120 retained [11]: 872 counts

FQKASSIVYKKEGEQVEF
COUNTS of radiolabeled gp120 retained [2]: 528 counts

EEVQLLVFGLTANSD
COUNTS of radiolabeled gp120 retained [11]: 6423 counts
COUNTS of radiolabeled gp120 retained [3]: 18721 counts and 18582 counts and 19738 counts and 21338 counts
COUNTS of radiolabeled gp120 retained [8]: 18040 counts and 23357 counts

FTVEKLTGSGELWWQAER
COUNTS of radiolabeled gp120 retained [2]: 1143 counts

SLKIIFLVMAVFLLTQMP [STRL33 segment 229-246]
radioactive counts recorded in twenty minutes [5]: 612.5 counts
radioactive counts recorded in twenty minutes [6]: 853.5 counts

RLHLSVADLLFVITLPFW [CXCR4 segment 77-94]
radioactive counts recorded in twenty minutes [9]: 136 counts
radioactive counts recorded in twenty minutes [10]: 548 counts

FKIDIVVLAFQK
COUNTS of radiolabeled gp120 retained [1]: 736 counts

DTYICEVEDQKEEVQ
COUNTS of radiolabeled gp120 retained [11]: 1071 counts

SFPLAFTVEKLTGSG
COUNTS of radiolabeled gp120 retained [2]: 565 counts

AFLQFSKVFLPCMYLVVF [STRL33 segment 25-42]
radioactive counts recorded in twenty minutes [5]: 1421.5 counts
radioactive counts recorded in twenty minutes [6]: 1359.5 counts

DRYLAIVHATNSQRPRKL
radioactive counts recorded in twenty minutes [9]: 168 counts
radioactive counts recorded in twenty minutes [10]: 580 counts

GEQVEFSFPAAFTVE
COUNTS of radiolabeled gp120 retained [8]: 10024 counts and 10589 counts

IVYKKEGEQVEFSFPLAFTVE
COUNTS of radiolabeled gp120 retained [12]: 15620 counts

GQVLLESNIKVLPTWSTPVQP [human CD4 376-396]
number of radioactive decays (counts) counted: 2089 counts

FSSFNDSSQEEHQAFLQF
Binding Results For Window Length (counts bound-background), 9 (background subtracted): 249 counts
Binding Results For Window Length (counts bound-background), 12 (background subtracted): 403 counts
Binding Results For Window Length (counts bound-background), 15 (background subtracted): 361 counts
Binding Results For Window Length (counts bound-background), 18 (background subtracted): 3608 counts

EFKIDIVVL
COUNTS of radiolabeled gp120 retained [1]: 665 counts

LAFQKASSI
COUNTS of radiolabeled gp120 retained [1]: 592 counts

LLNLAISDLFFLLTVPFW [CCR5 segment 69-86]
Counts per 20′ Average-background [7]: 144 counts per 20′

QEFFGLNNCSSSNRLDQA [CCR5 segment 261-]
Counts per 20′ Average-background [7]: 63 counts per 20′

KKVEFKIDIVVL
COUNTS of radiolabeled gp120 retained [1]: 597 counts

CKAVHVIYTVNLYSSVLI
radioactive counts recorded in twenty minutes [9]: 243 counts
radioactive counts recorded in twenty minutes [10]: 655 counts

EEVQLLAFGLTANSD
COUNTS of radiolabeled gp120 retained [3]: 13317 counts and 16286 counts

ANSDTHLLQ
COUNTS of radiolabeled gp120 retained [4]: 642 counts

MDYQVSSPIYDINYYTSA [CCR5 (1-18) variant E18A]
Relative % of Control (CCR5 (1-18) alanine variants): 4 ± 2%
percentage of binding of mutant polypeptide compared to wild-type polypeptide, gp120 (CCR5 alanine mutant peptide, radiolabeled HIV-1LAI gp120): 4.1%

CSSSNRLDQAMQVTETLG [CCR5 segment 269-]
Counts per 20′ Average-background [7]: 90 counts per 20′

VEFSFPLAFTVEKLTGSGELW
COUNTS of radiolabeled gp120 retained [12]: 633 counts

IRSTHWEYYAMTSFHYTI
radioactive counts recorded in twenty minutes [5]: 1571.5 counts
radioactive counts recorded in twenty minutes [6]: 1807.5 counts

QKKVEFKIDIVVLAF
COUNTS of radiolabeled gp120 retained [2]: 1333 counts

DYHEDYGFSSFNDSSQEE [STRL33 segment 5-22]
radioactive counts recorded in twenty minutes [5]: 3357.5 counts
radioactive counts recorded in twenty minutes [6]: 3689.5 counts
Binding Results For Window Length (counts bound-background), 9 (background subtracted): 851 counts
Binding Results For Window Length (counts bound-background), 12 (background subtracted): 1554 counts
Binding Results For Window Length (counts bound-background), 15 (background subtracted): 1240 counts
Binding Results For Window Length (counts bound-background), 18 (background subtracted): 1191 counts

KIDIVVLAFQKA
COUNTS of radiolabeled gp120 retained [1]: 689 counts

SFPLAFTVEKLTGSGELWWQA
COUNTS of radiolabeled gp120 retained [12]: 2284 counts

LTANSDTHLLQGQSLTLT
COUNTS of radiolabeled gp120 retained [11]: 528 counts

THLLQGQSLTLT
COUNTS of radiolabeled gp120 retained [4]: 646 counts

RCRHRRRQAERMSQIKRLLSE [human CD4 421-441]
number of radioactive decays (counts) counted: 2075 counts

LVSLPQIIYGNVFNLDKL
radioactive counts recorded in twenty minutes [5]: 91.5 counts
radioactive counts recorded in twenty minutes [6]: −15.5 counts

DLWVVVFQFQHIMVGLIL [CXCR4 segment 193-210]
radioactive counts recorded in twenty minutes [9]: 422 counts
radioactive counts recorded in twenty minutes [10]: 834 counts

LPLADLVFVCTLPFWAYA [STRL33 segment 73-90]
radioactive counts recorded in twenty minutes [5]: 557.5 counts
radioactive counts recorded in twenty minutes [6]: 960.5 counts

GEQVEFSFPLAF
COUNTS of radiolabeled gp120 retained [1]: 1729 counts

IFTRSQKEGLHYTCSSHF
Counts per 20′ Average-background [7]: 98 counts per 20′

AFQKASSIVYKK
COUNTS of radiolabeled gp120 retained [1]: 597 counts

NWYFGNFLCKAVHVIYTV
radioactive counts recorded in twenty minutes [9]: 96 counts
radioactive counts recorded in twenty minutes [10]: 508 counts

IPDFIFANVSEADDRYIC
radioactive counts recorded in twenty minutes [9]: 438 counts
radioactive counts recorded in twenty minutes [10]: 850 counts

TVEKLTGSGELW
COUNTS of radiolabeled gp120 retained [1]: 573 counts

MDYQVASPIYDINYYTSE
Relative % of Control (CCR5 (1-18) alanine variants): 124 ± 3%

FQTLKIVILGLVLPLLVM [CCR5 segment 193-]
Counts per 20′ Average-background [7]: 45 counts per 20′
